From patent US20180177749A1, “USE OF CYP EXPRESSION TO DIRECT THERAPEUTIC INTERVENTION IN CANCER” (REGENTS OF THE UNIVERSITY OF MINNESOTA, priority 2016, published 2018)

Test system: MCF-7 xenograft
Experiment: RPPA of protein expression, MCF-7 xenograft endpoint analysis
Type: in vivo, nude mice
Settings: 4 mg/kg/day vs. PBS
Method: Frozen xenograft tissue samples were embedded in OCT, and 8 μm sections were obtained using a cryostat. […] The resulting whole tissue lysates were boiled for 8 min at 100° C. and then printed onto a nitrocellulose slide (Avid, Grace Biolabs) along with a BSA protein concentration curve to estimate total protein concentration in each lysate. Total protein levels were assessed in each sample by staining with Sypro Ruby Protein Blot Stain (Invitrogen) according to manufacturer's instructions.
The total protein concentration in each sample was estimated by printing onto a nitrocellulose slide along with a BSA standard concentration curve, and total protein levels were assessed by staining with Sypro Ruby Protein Blot Stain (Invitrogen) according to manufacturer's instructions. Tissue lysates were diluted to 250 μg/ml in extraction buffer and stored at −80° C. prior to printing of arrays. RPPA printing and analysis of xenograft samples was conducted as previously described (Wulfkuhle et al., Clin Cancer Res. 2012; 18:6426-35). Antibody staining intensities were quantified using the MicroVigene v5 Software Package (Vigenetech). Signaling pathway activation was evaluated by staining the arrays with 156 antibodies against signaling endpoints, mainly phosphorylated and cleaved protein products. Before use for RPPA analysis, antibody specificity was confirmed by Western blot and analysis as previously described (Wulfkuhle et al., Clin Cancer Res. 2012; 18:6426-35).

[1] = *separate RPPA analysis, separate β actin probe

CCCCCCNC(=N)NC(=N)NCc1ccccc1 [HBB, N1-hexyl-N5-benzyl-biguanide]
fold change: 4EBP1 S65: 1.051
fold change: 4EBP1 T37/46: 1.261
fold change: 4EBP1 T70: 0.595
fold change: A-Raf S299: 0.862
fold change: AKT S473: 1.042
fold change: AKT T308: 0.793
fold change: ALK: 1.079
fold change: ALK Y1604: 0.954
fold change: AMPKalpha S485: 1.126
fold change: AMPKbeta S108: 0.665
fold change: ATF2 T69/71: 0.713
fold change: ATM S1981: 1.034
fold change: ATP CItrate Lyase S454: 1.000
fold change: ATR S428: 0.810
fold change: AXL: 0.566
fold change: Acetyl-CoA Carboxylase S79: 0.927
fold change: Actin beta: 1.000
fold change: Aurora A T288/B T232/C T198: 0.646
fold change: B-RAF: 1.130
fold change: B-Raf S445: 0.764
fold change: BAD: 2.424
fold change: BAD S112: 0.833
fold change: BAD S136: 0.958
fold change: BCL-2: 0.825
fold change: BIM: 0.727
fold change: Bak: 0.789
fold change: Bax: 0.807
fold change: Bcl_xL: 0.909
fold change: Beclin 1: 0.881
fold change: CREB S133: 0.626
fold change: Chk1 S345: 1.290
fold change: Cl Caspase 3 D175: 1.109
fold change: Cl Caspase 9 D315: 1.151
fold change: Cl Caspase 9 D330: 1.244
fold change: Cleaved PARP D214: 1.277
fold change: Cofilin S3: 0.443
fold change: CrkL Y207: 0.962
fold change: Cyclin A: 1.779
fold change: Cyclin B1 V152: 1.197
fold change: Cyclin D1 (G124-326): 1.277
fold change: Cyclin D1 T286: 0.611
fold change: E-Cadherin: 0.669
fold change: EGFR: 0.857
fold change: EGFR Y992: 0.803
fold change: EGFR Y1068: 1.089
fold change: EGFR Y1148: 0.891
fold change: EGFR Y1173: 0.954
fold change: ER TOTAL: 1.687
fold change: ER alpha S118: 0.964
fold change: ERK 1-2 T202/Y204: 0.423
fold change: ERK TOTAL: 0.791
fold change: Elk S383: 1.402
fold change: Ephrin A3 Y799/A4 Y799/A5 Y833: 1.149
fold change: ErbB2/HER2 Y877: 0.951
fold change: ErbB2/HER2 Y1248: 1.239
fold change: ErbB3/HER3: 0.851
fold change: ErbB3/HER3 Y1197: 1.223
fold change: ErbB3/HER3 Y1289: 1.268
fold change: FADD S194: 0.672
fold change: FAK Y576/577: 1.021
fold change: FKHR T24/FKHRL1 T32: 0.698
fold change: FKHRL1 S253: 0.960
fold change: FOXO1 S256: 0.854
fold change: GRB2: 0.830
fold change: GSK-3alpha/beta S21/9: 0.791
fold change: HIF-1 alpha: 2.406
fold change: HSP27 S82: 0.877
fold change: HSP70: 1.453
fold change: HSP90a T5/7: 0.945
fold change: Heregulin: 20.774
fold change: Histone H3 S28: 0.898
fold change: IGF1R Y1135/36-IR Y1150/51: 1.101
fold change: IGF-1R Y1131/IR Y1146: 1.019
fold change: IGFBP7: 0.992
fold change: IL6: 1.260
fold change: IRS1: 1.014
fold change: IRS-1 S612: 0.952
fold change: IkappaB-alpha S32/36: 1.130
fold change: Insulin Receptor Beta: 1.261
fold change: Jak2 Y1007: 0.881
fold change: KI67: 0.731
fold change: LC3B: 1.097
fold change: LIMK1 T508/LIMK2 T505: 0.795
fold change: LKB1 S428: 1.269
fold change: MARCKS S152/156: 1.071
fold change: MCSFR Y723: 1.228
fold change: MDM2 S166: 0.868
fold change: MEK 1/2 S217/221: 0.770
fold change: Met Y1234/1235: 1.033
fold change: Musashi: 0.898
fold change: NF-kappaB p65 S536: 0.817
fold change: PAK1 S199/204-PAK2 S192/197: 1.221
fold change: PAK1 T423/PAK2 T402: 1.028
fold change: PDGFR alpha Y754: 1.144
fold change: PDGFR beta: 0.705
fold change: PDGFR beta Y716: 0.887
fold change: PDK1 S241: 0.712
fold change: PDL1: 34.857
fold change: PKA C T197: 0.907
fold change: PKC delta/theta S643/S676: 0.671
fold change: PLK1 T210: 1.018
fold change: PTEN: 0.726
fold change: PTEN S380: 0.783
fold change: PUMA: 0.919
fold change: RAS TOTAL: 1.543
fold change: Ras_GRF1: 1.021
fold change: Rb S780: 0.674
fold change: Ret Y905: 0.810
fold change: Ros Y2274: 1.201
fold change: S6 Ribosomal Protein S240/244: 0.817
fold change: SAPK/JNK T183/Y185: 1.033
fold change: SGK1 S78: 1.318
fold change: SMAD2 S245/250/255: 0.760
fold change: STAT3 S727: 1.040
fold change: Shc Y317: 0.792
fold change: Smad1 Ser463/465-Smad5 Ser463/465-Smad9 Ser465/467: 0.900
fold change: Src Y527: 0.675
fold change: Src family Y416: 0.471
fold change: Stat 1 Y701: 0.937
fold change: Stat3 Y705: 0.936
fold change: Stat 5 Y694: 0.558
fold change: TGF-beta: 0.952
fold change: TNF alpha: 1.186
fold change: Tuberin/TSC2 Y1571: 1.208
fold change: VEGFR2 Y996: 0.828
fold change: Vimentin: 0.896
fold change: XIAP: 0.835
fold change: c-Abl T735: 0.776
fold change: c-Abl Y245: 0.846
fold change: c-ErbB2/HER2: 1.938
fold change: c-Kit Y703: 4.550
fold change: c-Met TOTAL: 0.877
fold change: c-Myc: 0.879
fold change: c-Raf S338: 1.016
fold change: eIF4G S1108: 0.791
fold change: eNOS/NOS III S116: 0.902
fold change: mTOR S2448: 1.034
fold change: p27 Kip1: 0.925
fold change: p27 T187: 0.685
fold change: p38 MAP Kinase T180/Y182: 1.011
fold change: p53: 0.997
fold change: p53 S15: 0.990
fold change: p70S6 Kinase: 0.674
fold change: p70 S6 Kinase S371: 0.762
fold change: p70 S6 Kinase T389: 0.773
fold change: p70 S6 Kinase T412: 0.998
fold change: p90RSK S380: 1.016
fold change: p90RSK T359/S363: 0.884
fold change: pYAP S127: 0.931
fold change: AMPK T172* [1]: 0.598
fold change: AMPK total* [1]: 1.69
fold change: PKM2 Y105* [1]: 2.13
fold change: PKM2 total* [1]: 1.01
